Experimental data published in BigSolDB 2.1.

O=P1(C(Nc2ccccc2)c2ccccc2)OCC2(CO1)COP(=O)(C(Nc1ccccc1)c1ccccc1)OC2 (centres undefined)
Conditions | solubility (mole fraction)
in 1,2-dichloroethane, 283.35 K | 0.000119
in 1,2-dichloroethane, 288.25 K | 0.000127
in 1,2-dichloroethane, 293.3 K | 0.00014
in 1,2-dichloroethane, 297.95 K | 0.000153
in 1,2-dichloroethane, 303.45 K | 0.000163
in 1,2-dichloroethane, 308.35 K | 0.000176
in 1,2-dichloroethane, 313.45 K | 0.00019
in 1,2-dichloroethane, 318.25 K | 0.000208
in 1,2-dichloroethane, 323.45 K | 0.000219
in 1,2-dichloroethane, 327.95 K | 0.000231
in 1,2-dichloroethane, 333.35 K | 0.000249
in 1,2-dichloroethane, 338.15 K | 0.000271
in 1,4-dioxane, 283.15 K | 7.3e-05
in 1,4-dioxane, 288.35 K | 8.4e-05
in 1,4-dioxane, 293.25 K | 0.0001
in 1,4-dioxane, 298.35 K | 0.000121
in 1,4-dioxane, 303.15 K | 0.000146
in 1,4-dioxane, 308.25 K | 0.000176
in 1,4-dioxane, 313.45 K | 0.000202
in 1,4-dioxane, 318.65 K | 0.000248
in 1,4-dioxane, 323.55 K | 0.000286
in 1,4-dioxane, 328.25 K | 0.000332
in 1,4-dioxane, 333.2 K | 0.000417
in 1,4-dioxane, 338.3 K | 0.000479
in THF, 288.45 K | 0.00381
in THF, 293.25 K | 0.00428
in THF, 298.15 K | 0.00481
in THF, 303.15 K | 0.0053
in THF, 308.65 K | 0.00588
in THF, 313.45 K | 0.00645
in THF, 318.45 K | 0.00711
in THF, 323.55 K | 0.00788
in THF, 328.35 K | 0.00862
in THF, 333.25 K | 0.01
in THF, 338.15 K | 0.0108
in acetic acid, 298.25 K | 0.000115
in acetic acid, 303.65 K | 0.000156
in acetic acid, 308.15 K | 0.000194
in acetic acid, 313.25 K | 0.000233
in acetic acid, 318.25 K | 0.000288
in acetic acid, 323.15 K | 0.000326
in acetic acid, 328.25 K | 0.000348
in acetic acid, 333.45 K | 0.000406
in acetic acid, 338.15 K | 0.000444
in acetone, 283.35 K | 9.1e-05
in acetone, 288.25 K | 0.000101
in acetone, 293.25 K | 0.00011
in acetone, 298.3 K | 0.000123
in acetone, 303.35 K | 0.000136
in acetone, 308.45 K | 0.000151
in acetone, 313.25 K | 0.000164
in acetone, 318.55 K | 0.000183
in acetone, 323.25 K | 0.000205
in acetone, 328.35 K | 0.000221
in acetonitrile, 288.3 K | 3.6e-05
in acetonitrile, 293.2 K | 4.5e-05
in acetonitrile, 298.25 K | 5.5e-05
in acetonitrile, 303.15 K | 6.1e-05
in acetonitrile, 308.25 K | 7.6e-05
in acetonitrile, 313.2 K | 8.7e-05
in acetonitrile, 317.95 K | 9.8e-05
in acetonitrile, 323.55 K | 0.000121
in acetonitrile, 328.45 K | 0.000146
in acetonitrile, 333.15 K | 0.000169
in acetonitrile, 338.25 K | 0.000194
in benzene, 283.25 K | 3.1e-05
in benzene, 288.35 K | 4.3e-05
in benzene, 293.15 K | 6.4e-05
in benzene, 298.45 K | 8.2e-05
in benzene, 303.35 K | 9.8e-05
in benzene, 308.45 K | 0.000123
in benzene, 313.25 K | 0.000145
in benzene, 318.3 K | 0.000178
in benzene, 323.35 K | 0.000199
in benzene, 328.25 K | 0.000218
in benzene, 333.15 K | 0.000239
in benzene, 338.35 K | 0.000266
in dichloromethane, 283.25 K | 0.000164
in dichloromethane, 288.3 K | 0.000202
in dichloromethane, 293.35 K | 0.000268
in dichloromethane, 298.25 K | 0.000308
in dichloromethane, 303.35 K | 0.000342
in dichloromethane, 308.15 K | 0.000388
in dichloromethane, 313.25 K | 0.000423
in diethyl ether, 283.35 K | 5.5e-05
in diethyl ether, 288.15 K | 8.6e-05
in diethyl ether, 292.95 K | 0.000126
in diethyl ether, 298.65 K | 0.000213
in diethyl ether, 303.25 K | 0.000299
in ethanol, 288.25 K | 4e-05
in ethanol, 293.15 K | 5e-05
in ethanol, 303.25 K | 7.4e-05
in ethanol, 308.55 K | 9e-05
in ethanol, 313.45 K | 0.000113
in ethanol, 317.85 K | 0.000141
in ethanol, 323.25 K | 0.00017
in ethanol, 328.25 K | 0.0002
in ethanol, 333.25 K | 0.000243
in ethanol, 338.25 K | 0.000285
in ethanol, 343.15 K | 0.00036
in isopropanol, 283.45 K | 0.000107
in isopropanol, 287.95 K | 0.000131
in isopropanol, 293.45 K | 0.000156
in isopropanol, 298.15 K | 0.000176
in isopropanol, 303.25 K | 0.000209
in isopropanol, 308.15 K | 0.000234
in isopropanol, 313.25 K | 0.000256
in isopropanol, 318.15 K | 0.000289
in isopropanol, 323.65 K | 0.000312
in isopropanol, 328.55 K | 0.000348
in isopropanol, 333.3 K | 0.000393
in isopropanol, 338.5 K | 0.000414
in toluene, 283.15 K | 0.000765
in toluene, 288.25 K | 0.00117
in toluene, 293.25 K | 0.0015
in toluene, 298.45 K | 0.00199
in toluene, 303.15 K | 0.00238
in toluene, 308.15 K | 0.00287
in toluene, 313.45 K | 0.00344
in toluene, 318.65 K | 0.00388
in toluene, 323.25 K | 0.00449
in toluene, 328.25 K | 0.00494
in toluene, 333.25 K | 0.00542
in toluene, 338.25 K | 0.00614
